# How the values were obtained:
# [1] = tested on: prostate cancer cell line (LNCaP); assay: Cell cytotoxicity, MTT assay, LNCaP; assay type: cell-based; conditions: Homo sapiens, 72 h, three days incubation
# Procedure: (§1) Normal prostate cells (PREC, Cambrex East Rutherford N.J.), prostate cancer cell line (LNCaP, ATCC), PBL (peripheral blood leukocytes-buffy coat San Diego Blood Bank), and primary CLL cells were incubated for one to two days in RPMI-1640 and 10% FBS (fetal bovine serum). They were plated in 96-well plates at 100,000 cells/well. Titrated concentrations of the compound to be tested were added to the culture medium. The cells were incubated three days at 37° C., 5% CO2. Viability of the cells was assayed by standard MTT assay. Each drug concentration was done in duplicate. MTT assay: 10 μl of 12 mM 3,[4,5-dimethylthiazol-2-yl]-2,5-diphenyltetrazolium bromide (MTT) (SIGMA) was added to each well. The cells were incubated at 37° C., 5% CO2 for 4 hours. 100 μl of 20% SDS, 0.015M HCl was added to each well and the cells were incubated overnight. The plates were read at absorbance 595 nm.
# [2] = tested on: PBL (peripheral blood leukocytes); assay: Cell cytotoxicity, MTT assay, PBL; assay type: cell-based; conditions: Leukocyte, 72 h, three days incubation
# Procedure: as §1
# [3] = tested on: Cyclin D1 protein in LNCaP cells; assay: Western blot of Cyclin D1 protein in LNCaP cell lysates; assay type: cell-based; conditions: LNCaP cell lysates from treated cells
# [4] = tested on: cyclin D1 transcripts in LNCaP cells; assay: Cyclin D1 transcript expression by quantitative PCR in LNCaP cells; assay type: cell-based; conditions: 24 hours, compound 42 (50 μM), compound 36 (100 μM), compound 1 (20 μM), normalized to 18s, FIG. 2
# Procedure: Cyclin D1 Transcript Expression Levels as measured by quantitative PCR assay. LNCaP cells were cultured at 37° C., 5% CO2 for 24 hours untreated or in the presence of R-etodolac (200 μM), compound 42 (50 μM), compound 36 (100 μM), or compound 1 (20 μM) (see Table II for structures). Cells were harvested by trypsinization, washed with PBS, and stored at −80° C. Total cellular RNA was prepared from cell pellets using the RNEasy® Mini kit (Qiagen, Inc., Valencia, Calif.). RNA was quantified by spectrophotometer. Approximately 2 μg of RNA was used to prepare cDNA using the ThermoScript™ RT-PCR System (Invitrogen, Carlsbad, Calif.).
# The levels of cyclin D1 transcripts in the cDNA samples were measured using a quantitative PCR (qPCR) assay specific for cyclin D1. The cyclin D1 transcript was amplified using the following primer pair:
# The cyclin D1 primers are described in a manuscript from Takayasu et al. (2001 Clin. Cancer Res. 7:901-908). All assays were performed in duplicate. All qPCR assays were performed and analyzed using a Bio-Rad iCycler (Bio-Rad, Hercules, Calif.). The levels of cyclin D1 transcripts were normalized for total input cDNA by performing a separate assay to detect the levels of a housekeeping gene (18s) using the following primer pair:
# The samples were normalized for 18s transcript levels using the method of Livak et al. (2001 Methods 25:402-408). The level of cyclin D1 transcripts in the control sample was set to 1. FIG. 2 represents the averaged normalized cyclin D1 transcripts±standard deviation for three independent experiments (two independent experiments for compound 1).
# [5] = target: T1, Cyclooxygenase-2 (human recombinant, expressed in Sf9 cell) (Homo sapiens, UniProt P35354); assay: Cox-2 assay: human recombinant cyclooxygenase-2, PGE2 by EIA; assay type: biochemical; conditions: human recombinant enzyme; for IC50: 0.3 μM arachidonic acid, PGE2; for inhibition at 10 µM: compounds are screened at 10 μM
# T1 construct: purchased Cayman 60122; host or cells: Sf9 cell
# T1 sequence (P35354 18-604): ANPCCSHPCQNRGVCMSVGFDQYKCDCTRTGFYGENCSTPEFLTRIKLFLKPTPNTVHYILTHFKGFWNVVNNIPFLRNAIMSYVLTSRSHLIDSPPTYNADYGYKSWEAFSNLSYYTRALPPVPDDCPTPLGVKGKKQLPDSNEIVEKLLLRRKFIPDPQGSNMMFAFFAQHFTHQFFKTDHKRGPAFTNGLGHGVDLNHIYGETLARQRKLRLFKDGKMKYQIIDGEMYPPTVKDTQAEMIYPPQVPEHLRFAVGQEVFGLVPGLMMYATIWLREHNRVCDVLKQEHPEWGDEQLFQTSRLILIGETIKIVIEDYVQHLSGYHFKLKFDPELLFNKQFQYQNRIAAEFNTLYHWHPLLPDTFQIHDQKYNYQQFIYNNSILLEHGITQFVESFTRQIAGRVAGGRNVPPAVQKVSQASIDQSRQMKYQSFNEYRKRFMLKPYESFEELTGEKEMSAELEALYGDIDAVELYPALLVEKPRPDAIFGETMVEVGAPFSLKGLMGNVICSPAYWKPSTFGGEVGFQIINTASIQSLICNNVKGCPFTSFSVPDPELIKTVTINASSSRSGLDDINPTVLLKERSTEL
# Procedure: Test compound and/or vehicle is pre-incubated with 0.11 U cyclooxygenase-2, 1 mM reduced glutathione (GSH), 500 μM phenol and 1 μM hematin for 15 minutes at 37° C. The reaction is initiated by addition of 0.3 μM arachidonic acid as substrate in Tris-HCl pH 7.7 and terminated after a 5 minute incubation at 37° C. by addition of 1N HCl. Following centrifugation, substrate conversion to PGE2 is measured by an Amersham EIA kit. Compounds are screened at 10 μM. […] J. Physiol.
# [6] = target: T2, COX-1 (Homo sapiens, UniProt P23219); assay: Cox-1 assay: PGE2 formation in human platelets; assay type: cell-based; conditions: for IC50: arachidonic acid 100 μM, PGE2; for inhibition at 10 µM: compounds are screened at 10 μM
# T2 construct: endogenous in cells; host or cells: human platelets
# Procedure: Test compound and/or vehicle is incubated with human platelets (10^8/ml) containing the phospholipase inhibitor MLnFP (100 μM) for 15 minutes at 37° C. Arachidonic acid (100 μM) is then added for a further 15 minute incubation period. The reaction is stopped by addition of 1 N HCl and neutralized with 1N NaOH. PGE2 levels in the supernatant are determined using the Amersham EIA kit. […]
# [7] = tested on: Normal prostate cells (PREC); assay: Cell cytotoxicity, MTT assay, PREC; assay type: cell-based; conditions: Homo sapiens, 72 h, three days incubation
# Procedure: as §1
# [8] = tested on: primary CLL cells; assay: Cell cytotoxicity, MTT assay, primary CLL cells; assay type: cell-based; conditions: 72 h, three days incubation
# Procedure: as §1
# [9] = tested on: Daudi human Burkitt Lymphoma derived tumors; assay: Daudi lymphoma murine xenograft model, efficacy; assay type: in vivo, male SCID mice; conditions: for mean tumor volume at termination of the study: p.o. in sesame oil, compound 47 250, compound 36 (printed 26) 250, compound 1 125, R-etodolac 400 mg/kg/d, control 1583 mm^3; for 4× Growth: time for the tumors to grow to 4× the initial volume at dosing, control 8.9 d; for 8× Growth: time for the tumors to grow to 8× the initial volume at dosing, control 14.5 d
# Procedure: Male SCID mice, 6-8 weeks of age, obtained from Simonsen Laboratories, Inc. (Gilroy, Calif.) were housed in groups of five.
# The Daudi human Burkitt Lymphoma cells were obtained from American Type Culture Collection and were inoculated subcutaneously (1.0×10^7 cells/mouse) on the flanks of SCID mice. After the tumors reached approximately 100 mm^3 treatment was initiated.
# Body weights and tumor volume of all mice were measured and recorded twice weekly. Tumors were measured in three dimensions and volume calculated using the formula: […]. Time for the tumors (days) to grow to 4× and 8× the initial volume at dosing were assessed. Study compounds were administered at 125 or 250 mg/kg/day (M-F) via oral gavage until the end of the study.
# The efficacy of chlorambucil (2 and 3 mg/kg/d), (R-etodoalc) (400 mg/kg/d) and compound 47 (250 mg/kg/d), compound 26 (250 mg/kg/d), and compound 1 (125 mg/kg/d) against Daudi derived tumors in male SCID mice were studied. R-etodolac and compounds 1, 26 and 47 were prepared in sesame oil. Both chlorambucil (ip, 0.1 ml) and compounds of the invention (per os [p.o.], 0.31 ml) were dosed daily (Monday to Friday) for two weeks. SDX-101 (0.31 ml) was dosed p.o. daily until the end of the study. […] However, all treated mice recovered after Day 2 and maintained their weights. There was no body weight loss observed in other treatment groups. At termination of the study, the control group mean tumor volume was 1583 mm^3. The mean tumor volume of chlorambucil treated groups were 864 and 766 mm^3 with 2 and 3 mg/kg/d chlorambucil treatment, respectively. The mean tumor volume of R-etodolac and compounds 1, […] and 47 were 802, 996, 1011, and 1157 mm^3 with compounds 47, 36, 1 and R-etodolac treatment, respectively. […] At termination of the study, tumor samples along with liver, kidney, and spleen samples from each group were collected and fixed in 10% buffered formalin for histopathology.
# T2 sequence (P23219 24-599): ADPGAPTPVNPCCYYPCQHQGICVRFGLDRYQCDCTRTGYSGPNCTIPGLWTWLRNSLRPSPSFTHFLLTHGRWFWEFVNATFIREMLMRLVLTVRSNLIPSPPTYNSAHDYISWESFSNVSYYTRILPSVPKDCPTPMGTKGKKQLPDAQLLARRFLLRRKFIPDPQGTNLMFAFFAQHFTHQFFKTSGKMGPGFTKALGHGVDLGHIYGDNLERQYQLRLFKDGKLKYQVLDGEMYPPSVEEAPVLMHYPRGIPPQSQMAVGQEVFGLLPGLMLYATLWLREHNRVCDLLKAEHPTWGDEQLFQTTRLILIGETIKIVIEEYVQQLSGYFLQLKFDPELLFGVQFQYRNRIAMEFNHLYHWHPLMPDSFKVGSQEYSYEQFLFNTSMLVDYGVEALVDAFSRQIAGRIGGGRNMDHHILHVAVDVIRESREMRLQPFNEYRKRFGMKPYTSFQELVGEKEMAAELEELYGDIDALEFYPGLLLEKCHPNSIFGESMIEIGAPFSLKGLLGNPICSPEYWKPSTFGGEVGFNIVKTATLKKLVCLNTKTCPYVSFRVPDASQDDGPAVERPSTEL
SMILES,IC50 [1],IC50 [2],Cyclin D1 protein expression (Western blot) [3],cyclin D1 mRNA expression [4],IC50 [5],inhibition at 10 µM [5],IC50 [6],inhibition at 10 µM [6],IC50 [7],IC50 [8],mean tumor volume at termination of the study [9],4× Growth [9],8× Growth [9]
"CCC1(CCO)OCCc2c1[nH]c1cccc(Cl)c21 (stereo not shown) [Compound 38, 2-(5-CHLORO-1-ETHYL-1,3,4,9-TETRAHYDRO-PYRANO[3,4-b]INDOL-1-YL)-ETHANOL]",23 µM,73 µM,–,–,–,–,–,–,–,–,–,–,–
"CCC1(CCO)OCCc2c1[nH]c1c(Cl)cc(Cl)cc21 (stereo not shown) [Compound 46, 2-(6,8-DICHLORO-1-ETHYL-1,3,4,9-TETRAHYDRO-PYRANO[3,4-b]INDOL-1-YL)-ETHANOL]",18 µM,20 µM,–,–,–,–,–,–,–,–,–,–,–
"CCC1(CCO)OCCc2c1[nH]c1ccc(Br)cc21 (stereo not shown) [Compound 42, 2-(6-BROMO-1-ETHYL-1,3,4,9-TETRAHYDRO-PYRANO[3,4-b]INDOL-1-YL)-ETHANOL]",12 µM,–,reduced Cyclin D1 protein expression,inhibit cyclin D1 mRNA expression,–,–,–,–,–,–,–,–,–
"CCC1(CCO)OCCc2c1[nH]c1c(C(C)C)cccc21 (stereo not shown) [Compound 36, 2-(1-ETHYL-8-ISOPROPYL-1,3,4,9-TETRAHYDRO-PYRANO[3,4-b]INDOL-1-YL)-ETHANOL]",30 µM,160 µM,reduced Cyclin D1 protein expression,inhibit cyclin D1 mRNA expression,> 300 µM,18%,> 300 µM,-4%,160 µM,50 µM,996 mm^3,13.5 days,20.8 days
"CCc1cc(Br)cc2c3c([nH]c12)C(CC)(CCO)OCC3 (stereo not shown) [Compound 47, 2-(6-BROMO-1,8-DIETHYL-1,3,4,9-TETRAHYDRO-PYRANO[3,4-b]INDOL-1-YL)-ETHANOL]",3 µM,60 µM,–,–,> 100 µM,78%,68.6 µM,45%,14 µM,21 µM,802 mm^3,16 days,21.5 days
"CCc1cccc2c3c([nH]c12)[C@@](CC)(CC(=O)O)OCC3 [R-etodolac, reference compound]",–,–,reduced Cyclin D1 protein expression,–,–,–,–,–,–,–,1157 mm^3,11 days,17 days
"CCC1(CCO)OCCc2c1[nH]c1c(Cl)cccc21 (stereo not shown) [Compound 27, 2-(8-CHLORO-1-ETHYL-1,3,4,9-TETRAHYDRO-PYRANO[3,4-b]INDOL-1-YL)-ETHANOL]",52 µM,150 µM,–,–,> 300 µM,3%,> 300 µM,24%,140 µM,52 µM,–,–,–
"CCc1cccc2c3c([nH]c12)C(CC)(CC(=O)O)OCC3 (stereo not shown) [Etodolac, reference compound]",122 µM,350 µM,–,–,> 300 µM,-14%,–,–,416 µM,200 µM,–,–,–
"CCc1cccc2c3c([nH]c12)[C@@](CC)(CCO)OCC3 [Compound 35, R-2-(1,8-DIETHYL-1,3,4,9-TETRAHYDRO-PYRANO[3,4-b]INDOL-1-YL)-ETHANOL]",68 µM,140 µM,–,–,> 300 µM,-10%,> 300 µM,-69%,220 µM,100 µM,–,–,–
"CCC1(CCO)OCCc2c1[nH]c1cccc(F)c21 (stereo not shown) [Compound 39, 2-(1-ETHYL-5-FLUORO-1,3,4,9-TETRAHYDRO-PYRANO[3,4-b]INDOL-1-YL)-ETHANOL]",46 µM,120 µM,–,–,–,–,–,–,–,–,–,–,–
CCC1(CCO)OCCc2c1[nH]c1c(C)cc(C)cc21 (stereo not shown) [Compound 45],8 µM,90 µM,–,–,–,–,–,–,–,–,–,–,–
